Test results reported in PMC6704710, “Preclinical evaluation of 3D185, a novel potent inhibitor of FGFR1/2/3 and CSF-1R, in FGFR-dependent and macrophage-dominant cancer models” (Journal of Experimental & Clinical Cancer Research : CR, 2019).

Tests used:
Assay in all cases: Eurofins kinase panel
Format in all cases: biochemical
Conditions in all cases: read-out: Inhibition rate (%)
JAK1(h) = biological target: T1, JAK1(h) (Homo sapiens, UniProt P23458)
T1 construct: purchased Eurofins (KinaseProfiler)

HIPK2(h) = biological target: T2, HIPK2(h) (Homo sapiens, UniProt Q9H2X6)
T2 construct: purchased Eurofins (KinaseProfiler)

EphB2(h) = biological target: T3, EphB2(h) (Homo sapiens, UniProt P29323)
T3 construct: purchased Eurofins (KinaseProfiler)
T3 sequence (P29323 19-1055): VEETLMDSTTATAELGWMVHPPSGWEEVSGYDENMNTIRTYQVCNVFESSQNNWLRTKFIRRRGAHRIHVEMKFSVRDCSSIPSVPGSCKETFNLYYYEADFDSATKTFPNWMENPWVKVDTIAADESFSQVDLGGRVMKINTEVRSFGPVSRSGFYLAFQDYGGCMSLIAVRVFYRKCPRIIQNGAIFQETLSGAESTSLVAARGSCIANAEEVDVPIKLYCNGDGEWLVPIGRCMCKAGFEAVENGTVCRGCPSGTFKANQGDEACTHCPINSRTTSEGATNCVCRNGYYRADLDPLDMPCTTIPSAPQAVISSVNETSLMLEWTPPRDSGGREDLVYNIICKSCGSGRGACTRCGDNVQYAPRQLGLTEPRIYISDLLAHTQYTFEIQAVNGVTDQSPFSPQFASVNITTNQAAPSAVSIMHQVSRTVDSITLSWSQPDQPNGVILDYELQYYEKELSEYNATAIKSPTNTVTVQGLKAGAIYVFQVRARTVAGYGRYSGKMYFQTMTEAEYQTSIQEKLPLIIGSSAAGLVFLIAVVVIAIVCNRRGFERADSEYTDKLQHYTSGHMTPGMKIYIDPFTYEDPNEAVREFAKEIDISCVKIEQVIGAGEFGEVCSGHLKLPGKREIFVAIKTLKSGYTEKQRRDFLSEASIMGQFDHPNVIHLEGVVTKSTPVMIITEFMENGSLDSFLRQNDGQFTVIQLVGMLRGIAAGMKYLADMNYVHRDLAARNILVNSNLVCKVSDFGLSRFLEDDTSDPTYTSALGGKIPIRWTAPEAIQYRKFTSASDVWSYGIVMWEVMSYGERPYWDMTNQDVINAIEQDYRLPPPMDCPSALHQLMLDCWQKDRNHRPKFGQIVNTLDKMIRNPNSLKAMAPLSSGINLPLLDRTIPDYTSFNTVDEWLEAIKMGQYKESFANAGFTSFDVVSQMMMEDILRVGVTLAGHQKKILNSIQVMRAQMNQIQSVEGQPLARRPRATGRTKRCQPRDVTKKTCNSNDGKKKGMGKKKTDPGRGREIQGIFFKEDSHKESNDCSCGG

RIPK1(h) = biological target: T4, RIPK1(h) (Homo sapiens, UniProt Q13546)
T4 construct: purchased Eurofins (KinaseProfiler)
T4 sequence (Q13546 1-671): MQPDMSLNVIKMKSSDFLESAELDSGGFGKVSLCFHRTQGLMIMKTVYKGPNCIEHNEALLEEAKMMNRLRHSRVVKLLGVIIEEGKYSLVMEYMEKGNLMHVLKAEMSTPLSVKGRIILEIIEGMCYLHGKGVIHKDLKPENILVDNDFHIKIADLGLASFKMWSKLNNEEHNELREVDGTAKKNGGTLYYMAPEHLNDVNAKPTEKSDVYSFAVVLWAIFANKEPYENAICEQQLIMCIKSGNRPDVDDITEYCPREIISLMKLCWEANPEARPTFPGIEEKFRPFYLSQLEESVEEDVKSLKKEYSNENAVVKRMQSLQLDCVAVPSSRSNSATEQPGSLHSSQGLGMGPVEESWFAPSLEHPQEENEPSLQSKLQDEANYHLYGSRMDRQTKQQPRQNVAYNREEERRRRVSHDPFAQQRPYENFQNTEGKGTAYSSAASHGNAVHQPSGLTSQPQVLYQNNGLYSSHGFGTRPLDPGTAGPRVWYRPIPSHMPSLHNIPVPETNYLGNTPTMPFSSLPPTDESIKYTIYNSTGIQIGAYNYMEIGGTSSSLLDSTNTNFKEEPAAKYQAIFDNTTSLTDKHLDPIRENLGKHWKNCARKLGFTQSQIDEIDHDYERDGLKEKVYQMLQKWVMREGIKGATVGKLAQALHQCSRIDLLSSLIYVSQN

GRK1(h) = biological target: T5, GRK1(h) (Homo sapiens, UniProt Q15835)
T5 construct: purchased Eurofins (KinaseProfiler)
T5 sequence (Q15835 1-563): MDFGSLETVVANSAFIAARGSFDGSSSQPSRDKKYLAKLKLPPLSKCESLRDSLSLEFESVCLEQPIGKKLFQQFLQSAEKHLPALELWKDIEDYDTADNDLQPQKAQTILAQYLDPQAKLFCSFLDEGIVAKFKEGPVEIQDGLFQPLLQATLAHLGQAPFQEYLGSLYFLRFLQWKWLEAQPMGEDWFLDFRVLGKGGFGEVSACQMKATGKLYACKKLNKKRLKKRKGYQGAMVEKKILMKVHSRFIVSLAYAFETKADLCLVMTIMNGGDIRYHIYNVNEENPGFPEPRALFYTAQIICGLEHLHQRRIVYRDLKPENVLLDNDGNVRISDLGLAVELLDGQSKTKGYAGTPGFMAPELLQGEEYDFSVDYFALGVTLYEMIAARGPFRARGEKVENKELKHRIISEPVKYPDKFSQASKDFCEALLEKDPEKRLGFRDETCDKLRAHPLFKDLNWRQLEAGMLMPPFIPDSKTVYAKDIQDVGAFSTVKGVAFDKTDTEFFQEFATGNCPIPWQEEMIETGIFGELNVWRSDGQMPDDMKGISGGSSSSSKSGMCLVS

EphA4(h) = biological target: T6, EphA4(h) (Homo sapiens, UniProt P54764)
T6 construct: purchased Eurofins (KinaseProfiler)

Lck(h) activated = biological target: T7, Lck(h) activated (Homo sapiens, UniProt P06239)
T7 construct: purchased Eurofins (KinaseProfiler)
T7 sequence (P06239 whole entry): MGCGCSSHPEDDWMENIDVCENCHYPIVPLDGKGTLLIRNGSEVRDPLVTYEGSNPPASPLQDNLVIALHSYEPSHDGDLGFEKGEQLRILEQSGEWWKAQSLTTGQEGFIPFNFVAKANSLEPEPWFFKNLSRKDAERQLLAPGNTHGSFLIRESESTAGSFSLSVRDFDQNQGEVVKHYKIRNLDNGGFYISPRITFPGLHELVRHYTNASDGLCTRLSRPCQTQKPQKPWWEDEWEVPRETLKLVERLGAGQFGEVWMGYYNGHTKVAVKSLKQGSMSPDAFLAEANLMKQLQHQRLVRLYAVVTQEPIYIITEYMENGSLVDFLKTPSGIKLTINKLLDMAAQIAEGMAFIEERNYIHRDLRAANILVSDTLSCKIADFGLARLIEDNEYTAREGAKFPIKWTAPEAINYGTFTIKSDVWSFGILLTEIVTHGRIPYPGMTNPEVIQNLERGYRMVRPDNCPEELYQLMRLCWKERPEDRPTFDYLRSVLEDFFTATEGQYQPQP

T2 sequence (Q9H2X6 whole entry): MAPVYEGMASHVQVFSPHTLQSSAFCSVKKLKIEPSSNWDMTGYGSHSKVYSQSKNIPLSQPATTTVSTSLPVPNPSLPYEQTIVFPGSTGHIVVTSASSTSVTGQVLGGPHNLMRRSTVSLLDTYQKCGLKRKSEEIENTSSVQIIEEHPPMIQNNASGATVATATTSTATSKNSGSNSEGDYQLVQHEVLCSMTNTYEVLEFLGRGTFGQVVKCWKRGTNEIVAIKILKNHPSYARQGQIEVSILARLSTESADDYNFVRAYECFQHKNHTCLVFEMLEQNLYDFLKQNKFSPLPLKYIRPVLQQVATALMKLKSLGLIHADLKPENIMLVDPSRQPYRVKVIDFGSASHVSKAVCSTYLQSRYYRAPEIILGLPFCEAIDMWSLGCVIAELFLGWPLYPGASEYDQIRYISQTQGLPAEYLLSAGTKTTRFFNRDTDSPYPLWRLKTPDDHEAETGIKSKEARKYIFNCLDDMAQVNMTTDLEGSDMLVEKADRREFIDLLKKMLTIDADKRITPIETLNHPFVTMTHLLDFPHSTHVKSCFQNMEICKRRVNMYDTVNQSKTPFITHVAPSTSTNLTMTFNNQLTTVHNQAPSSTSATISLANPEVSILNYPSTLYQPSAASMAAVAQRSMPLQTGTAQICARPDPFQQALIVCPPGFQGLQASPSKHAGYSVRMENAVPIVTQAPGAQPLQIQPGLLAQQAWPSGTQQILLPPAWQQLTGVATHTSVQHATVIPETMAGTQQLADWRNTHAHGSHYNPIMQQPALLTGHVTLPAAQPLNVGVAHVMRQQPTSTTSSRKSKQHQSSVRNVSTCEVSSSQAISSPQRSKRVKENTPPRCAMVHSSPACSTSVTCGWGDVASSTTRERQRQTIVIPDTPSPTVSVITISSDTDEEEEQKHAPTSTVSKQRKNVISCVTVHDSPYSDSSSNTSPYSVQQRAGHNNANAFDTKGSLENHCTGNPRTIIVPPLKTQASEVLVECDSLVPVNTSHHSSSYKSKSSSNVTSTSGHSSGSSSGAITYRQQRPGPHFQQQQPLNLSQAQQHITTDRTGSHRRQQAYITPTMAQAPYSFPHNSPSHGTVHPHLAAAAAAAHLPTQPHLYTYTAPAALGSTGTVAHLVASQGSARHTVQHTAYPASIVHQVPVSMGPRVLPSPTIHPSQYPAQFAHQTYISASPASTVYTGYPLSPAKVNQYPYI
T6 sequence (P54764 20-986): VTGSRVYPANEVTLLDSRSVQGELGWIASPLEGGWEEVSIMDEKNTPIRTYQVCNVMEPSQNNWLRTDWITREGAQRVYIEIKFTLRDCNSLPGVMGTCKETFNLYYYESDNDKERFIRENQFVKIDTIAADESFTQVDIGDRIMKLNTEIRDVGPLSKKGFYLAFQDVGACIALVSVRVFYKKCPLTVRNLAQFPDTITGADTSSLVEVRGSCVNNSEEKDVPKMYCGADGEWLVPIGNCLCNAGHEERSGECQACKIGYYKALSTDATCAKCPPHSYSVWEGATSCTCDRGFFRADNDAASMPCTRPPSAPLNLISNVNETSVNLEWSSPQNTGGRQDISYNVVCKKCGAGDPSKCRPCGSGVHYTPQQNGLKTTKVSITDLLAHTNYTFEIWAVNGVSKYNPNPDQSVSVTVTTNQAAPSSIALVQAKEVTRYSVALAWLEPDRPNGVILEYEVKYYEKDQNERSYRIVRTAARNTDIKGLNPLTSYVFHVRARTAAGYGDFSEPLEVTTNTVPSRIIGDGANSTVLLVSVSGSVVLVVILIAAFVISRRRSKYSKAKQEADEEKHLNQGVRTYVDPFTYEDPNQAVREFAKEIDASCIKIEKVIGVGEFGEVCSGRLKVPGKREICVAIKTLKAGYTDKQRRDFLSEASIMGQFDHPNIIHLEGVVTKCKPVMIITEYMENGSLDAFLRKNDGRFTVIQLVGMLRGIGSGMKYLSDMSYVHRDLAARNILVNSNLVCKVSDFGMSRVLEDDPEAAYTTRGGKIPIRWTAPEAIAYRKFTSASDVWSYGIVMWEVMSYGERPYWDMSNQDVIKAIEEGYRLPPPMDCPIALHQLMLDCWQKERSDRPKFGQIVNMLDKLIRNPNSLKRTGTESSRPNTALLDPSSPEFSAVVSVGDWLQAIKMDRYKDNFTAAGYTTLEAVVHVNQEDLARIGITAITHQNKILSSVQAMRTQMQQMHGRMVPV
T1 sequence (P23458 whole entry): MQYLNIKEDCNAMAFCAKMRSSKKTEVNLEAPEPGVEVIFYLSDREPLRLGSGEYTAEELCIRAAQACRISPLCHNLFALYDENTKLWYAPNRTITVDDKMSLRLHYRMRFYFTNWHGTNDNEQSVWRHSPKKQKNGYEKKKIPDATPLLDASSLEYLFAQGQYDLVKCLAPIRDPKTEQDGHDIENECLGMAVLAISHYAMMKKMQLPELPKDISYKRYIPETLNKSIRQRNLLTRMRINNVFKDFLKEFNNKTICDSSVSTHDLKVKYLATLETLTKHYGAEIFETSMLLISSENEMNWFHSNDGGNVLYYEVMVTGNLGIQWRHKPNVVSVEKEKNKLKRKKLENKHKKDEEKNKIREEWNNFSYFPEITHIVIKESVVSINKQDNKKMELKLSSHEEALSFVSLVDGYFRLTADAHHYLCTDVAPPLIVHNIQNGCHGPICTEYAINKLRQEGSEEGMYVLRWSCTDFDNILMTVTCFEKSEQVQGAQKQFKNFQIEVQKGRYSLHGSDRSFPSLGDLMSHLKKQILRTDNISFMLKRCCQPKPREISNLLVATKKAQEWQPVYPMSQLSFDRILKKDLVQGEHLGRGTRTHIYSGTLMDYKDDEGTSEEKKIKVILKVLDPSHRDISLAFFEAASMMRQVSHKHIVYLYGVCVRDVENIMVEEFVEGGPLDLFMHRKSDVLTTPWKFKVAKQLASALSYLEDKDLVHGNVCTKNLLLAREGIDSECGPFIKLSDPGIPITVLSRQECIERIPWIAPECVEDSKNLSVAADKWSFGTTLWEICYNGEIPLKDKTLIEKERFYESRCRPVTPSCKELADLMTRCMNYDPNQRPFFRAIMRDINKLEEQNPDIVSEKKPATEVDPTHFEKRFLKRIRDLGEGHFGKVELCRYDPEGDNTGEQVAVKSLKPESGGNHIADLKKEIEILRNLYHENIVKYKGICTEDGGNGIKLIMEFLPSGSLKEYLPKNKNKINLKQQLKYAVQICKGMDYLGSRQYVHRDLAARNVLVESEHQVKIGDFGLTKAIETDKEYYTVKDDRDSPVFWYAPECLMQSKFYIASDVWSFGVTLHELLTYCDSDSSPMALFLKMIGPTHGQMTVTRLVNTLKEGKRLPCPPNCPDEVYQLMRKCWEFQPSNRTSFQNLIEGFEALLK

COc1cc(OC)c(Cl)c(-c2ccc3c(NC(=O)c4ccc(N5CCNC(C)(C)C5)cc4)n[nH]c3n2)c1Cl [3D185]
inhibition at 0.01 µM (JAK1(h); 10 nM): 13% | inhibition at 0.1 µM (JAK1(h); 100 nM): 15% | inhibition at 1 µM (JAK1(h); 1000 nM): 20% | inhibition at 0.01 µM (HIPK2(h); 10 nM): 3% | inhibition at 0.1 µM (HIPK2(h); 100 nM): 6% | inhibition at 1 µM (HIPK2(h); 1000 nM): -10% | inhibition at 0.01 µM (EphB2(h); 10 nM): 12% | inhibition at 0.1 µM (EphB2(h); 100 nM): 6% | inhibition at 1 µM (EphB2(h); 1000 nM): 15% | inhibition at 0.01 µM (RIPK1(h); 10 nM): 4% | inhibition at 0.1 µM (RIPK1(h); 100 nM): 86% | inhibition at 1 µM (RIPK1(h); 1000 nM): 99% | inhibition at 0.01 µM (GRK1(h); 10 nM): -2% | inhibition at 0.1 µM (GRK1(h); 100 nM): -5% | inhibition at 1 µM (GRK1(h); 1000 nM): -7% | inhibition at 0.01 µM (EphA4(h); 10 nM): 14% | inhibition at 0.1 µM (EphA4(h); 100 nM): 5% | inhibition at 1 µM (EphA4(h); 1000 nM): 13% | inhibition at 0.01 µM (Lck(h) activated; 10 nM): 16% | inhibition at 0.1 µM (Lck(h) activated; 100 nM): 59% | inhibition at 1 µM (Lck(h) activated; 1000 nM): 92%
